As usually defined, the % inhibition is how much of the control response was suppressed. A high value points to strong suppression.

SMILES strings stand for the structures.

The values below come from patent US6403627B1, “Spin trapping pharmaceutical compositions and methods for use thereof” (Oklahoma Medical Research Foundation, priority 1991, dated 2002).

Data set [1] is described as follows: Toxicity tests (LD50). Format: in vivo. As to the method: Exemplary dosages of the parent phenyl t-butyl nitrone administered intravenously range from 0.1 to 10 mg/kg of body weight in animals. […] It is possible to extrapolate from comparative tests using other spin trapping compounds what the effective dosage for these compounds will be.
In data set [2] the test system is free radicals produced by adriamycin in heart, brain and other organs. The settings on record: brain and other organs of research animals; cited from earlier work.
For data set [3], the system named is oxidation of low density lipoprotein in plasma. As to the kind of experiment: Oxidation of lipid in plasma/LDL samples measured as thiobarbituric acid reactive substance (TBAR). Type of data set: biochemical. The settings on record: for % inhibition / Test (TBAR): 0.1 mM PBN, 4° C. for seven weeks; for % inhibition: actual inhibition greater than measured (assay interference by PBN). As to the method: Diabetic atherosclerosis involves the abnormal and excessive glycation of protein in the vascular wall. As discussed above for diabetic neuropathy, this involves oxygen radical production and consequent further damage to cytosolic proteins. Spin-trapping compounds will prevent this abnormal processing of cellular protein and other cellular constituents. […] Plasma samples were tested for oxidation of lipid measured using thiobarbioturic acid reactive substance (TBAR, nM) and % inhibition of oxidation calculated.

The test system of data set [4] is protein oxidation and enzyme activity in aged cells/brain. The settings on record: as early as seven days following initiation of daily treatment; cited from earlier work.
The test system is the same in data set [5]. As to the kind of experiment: Age-related protein oxidation and enzyme activity after daily administration. Format: in vivo. The note with it: aging; daily administration for fourteen days. From the text: The consequence of this increased level of protein oxidation is an abnormally low level of critical enzymes in the affected cells. While not all cells have been evaluated, it appears from the in vivo data presented in U.S. Ser. No. 07/589,177abandoned on Mar. 5, 1993, and U.S. Ser. No. 07/422,651, now U.S. Pat. No. 5,025,032, and reports of in vitro studies, that most, if not all, cells in the body will undergo abnormally high levels of protein oxidation. Decreases in antioxidant systems and abnormally low levels of mitochondrial function have been described. The protein oxidation is thought to arise from oxygen free radicals, largely generated via a metal catalyzed reaction within the cell. […] Organs for transplantation are obtained from donors. The success of the procedure is determined in part by the age (oxidation) related reduction in organ viability, the amount of time the organ is in preservation solution, and the status of the recipient.

Consider `CC(C)(C)[N+]([O-])=Cc1ccccc1` [PBN, phenyl N-tert-butylnitrone], for which, in data set [1], the LD50 result is listed as “not possible to determine an LD50”. Also, the toxicity entry in data set [1] is “completely innocuous”. Further, the “trapping of free radicals produced by adriamycin” value in data set [2] is recorded as “trap the free radicals produced by adriamycin”. Also, the “% inhibition” value in data set [3] (NP132 plasma) is given as 18.2%; in data set [3] (NP133 LDL), 48.1%; in data set [3] (NP134 plasma), 22.2%; in data set [3] (NP135 LDL), 66.7%; in data set [3] (NP135 plasma) it was 21.9%. In addition, the “Test (TBAR)” value in data set [3] (NP132 plasma, control + PBS 0.55) is listed as 0.45 nM/ml; in data set [3] (NP133 LDL, control + PBS 0.54), 0.28 nM/ml; in data set [3] (NP134 plasma, control + PBS 0.18), 0.14 nM/ml; in data set [3] (NP135 LDL, control + PBS 0.33), 0.11 nM/ml; in data set [3] (NP135 plasma, control + PBS 0.32) it was 0.25 nM/ml. Moreover, the “oxidation of low density lipoprotein in plasma” value in data set [3] (in vitro studies) is listed as “inhibits or reduces oxidation of low density lipoprotein in plasma”. Also, the “enzymatic status of the aged brain” value in data set [4] is given as “restoring enzymatic levels to near those of the young adult”. In data set [5], the “abnormally low level of enzyme activity” value was “restored to normal”. Besides, the “level of protein oxidation” value in data set [5] is “decreased”.
